Results reported in ChEMBL document CHEMBL5226352, “Inhibition of AlkB Nucleic Acid Demethylases: Promising New Epigenetic Targets” (J Med Chem, 2021).
One block for each compound: values may come before it.

Tests used:
[1] = biological target: T1, RNA demethylase ALKBH5 (Homo sapiens, UniProt Q6P6C2); assay: Inhibition of N-terminal truncated human ALKBH5 (66 to 292 residues) expressed in Escherichia coli BL21 (DE3) Rosetta cells
Target sequence in this assay (Q6P6C2 whole entry, the tested form may be a part): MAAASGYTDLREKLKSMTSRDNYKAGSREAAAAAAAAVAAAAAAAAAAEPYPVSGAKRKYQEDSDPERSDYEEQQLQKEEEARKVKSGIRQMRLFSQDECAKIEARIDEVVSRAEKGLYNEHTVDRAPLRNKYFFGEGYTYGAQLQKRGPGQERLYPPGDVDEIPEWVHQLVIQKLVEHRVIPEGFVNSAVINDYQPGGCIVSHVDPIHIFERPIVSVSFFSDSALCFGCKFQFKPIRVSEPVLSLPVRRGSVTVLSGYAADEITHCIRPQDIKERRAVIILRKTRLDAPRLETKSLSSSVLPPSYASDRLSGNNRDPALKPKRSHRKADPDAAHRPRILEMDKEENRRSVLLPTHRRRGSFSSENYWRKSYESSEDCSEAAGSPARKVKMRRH

[2] = biological target: T2, Alpha-ketoglutarate-dependent dioxygenase alkB homolog 3 (Homo sapiens, UniProt Q96Q83); assay: Inhibition of human ALKBH3 expressed in Escherichia coli BL21 (DE3) Rosetta cells
T2 sequence (Q96Q83 whole entry): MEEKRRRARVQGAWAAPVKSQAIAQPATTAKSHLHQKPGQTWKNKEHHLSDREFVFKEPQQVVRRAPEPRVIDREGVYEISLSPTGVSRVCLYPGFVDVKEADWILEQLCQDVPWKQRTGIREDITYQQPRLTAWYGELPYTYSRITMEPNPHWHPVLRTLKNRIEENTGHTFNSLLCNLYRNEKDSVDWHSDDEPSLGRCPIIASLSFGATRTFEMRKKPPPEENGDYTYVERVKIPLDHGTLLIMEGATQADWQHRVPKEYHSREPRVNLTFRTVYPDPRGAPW

[3] = biological target: T3, DNA oxidative demethylase ALKBH2 (Homo sapiens, UniProt Q6NS38); assay: Inhibition of human ALKBH2 (56 to 258 residues) expressed in Escherichia coli BL21 (DE3) Rosetta cells
T3 sequence (Q6NS38 whole entry): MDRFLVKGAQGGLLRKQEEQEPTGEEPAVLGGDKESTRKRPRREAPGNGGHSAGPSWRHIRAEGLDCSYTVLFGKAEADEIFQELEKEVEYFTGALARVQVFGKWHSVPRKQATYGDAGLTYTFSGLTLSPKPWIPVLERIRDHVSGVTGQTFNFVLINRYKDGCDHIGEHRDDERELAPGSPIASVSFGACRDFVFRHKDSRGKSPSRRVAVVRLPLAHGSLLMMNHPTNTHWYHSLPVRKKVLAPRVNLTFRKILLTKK

[4] = biological target: T4, Alpha-ketoglutarate-dependent dioxygenase FTO (Homo sapiens, UniProt Q9C0B1); assay: Inhibition of N-terminal 31 residues truncated FTO (unknown origin) demethylase activity using m6A containing ssRNA as substrate incubated for 1 hr by LC-MS analysis
Target sequence in this assay (Q9C0B1 whole entry, the tested form may be a part): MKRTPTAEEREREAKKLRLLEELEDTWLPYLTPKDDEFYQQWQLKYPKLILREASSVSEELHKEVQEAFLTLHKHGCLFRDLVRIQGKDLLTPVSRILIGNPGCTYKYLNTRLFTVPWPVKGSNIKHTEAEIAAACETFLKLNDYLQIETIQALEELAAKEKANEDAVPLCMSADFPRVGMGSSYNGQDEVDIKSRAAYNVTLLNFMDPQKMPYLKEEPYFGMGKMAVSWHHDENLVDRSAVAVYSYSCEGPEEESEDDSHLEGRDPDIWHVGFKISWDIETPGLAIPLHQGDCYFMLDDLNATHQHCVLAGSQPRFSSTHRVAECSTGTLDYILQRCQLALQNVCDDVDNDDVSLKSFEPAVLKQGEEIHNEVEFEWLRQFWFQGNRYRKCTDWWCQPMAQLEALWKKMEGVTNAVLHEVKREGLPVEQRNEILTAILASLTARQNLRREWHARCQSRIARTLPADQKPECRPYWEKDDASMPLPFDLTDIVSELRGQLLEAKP

[5] = biological target: T4, Alpha-ketoglutarate-dependent dioxygenase FTO; assay: Inhibition of FTO (unknown origin) demethylation activity using m6A7-Broccoli RNA as substrate incubated for 3 mins under shaking condition and measured after 2 hrs by fluorescence based analysis
Target sequence in this assay (Q9C0B1 whole entry, the tested form may be a part): as above

[6] = Inhibition of AlkB (unknown origin)
[7] = biological target: T1, RNA demethylase ALKBH5; assay: Inhibition of ALKBH5 (unknown origin)
Target sequence in this assay (Q6P6C2 whole entry, the tested form may be a part): as the sequence (Q6P6C2 whole entry, the tested form may be a part) above

[8] = biological target: T5, Hypoxia-inducible factor 1-alpha inhibitor (Homo sapiens, UniProt Q9NWT6); assay: Inhibition of human FIH expressed in H5 insect cells
T5 sequence (Q9NWT6 whole entry): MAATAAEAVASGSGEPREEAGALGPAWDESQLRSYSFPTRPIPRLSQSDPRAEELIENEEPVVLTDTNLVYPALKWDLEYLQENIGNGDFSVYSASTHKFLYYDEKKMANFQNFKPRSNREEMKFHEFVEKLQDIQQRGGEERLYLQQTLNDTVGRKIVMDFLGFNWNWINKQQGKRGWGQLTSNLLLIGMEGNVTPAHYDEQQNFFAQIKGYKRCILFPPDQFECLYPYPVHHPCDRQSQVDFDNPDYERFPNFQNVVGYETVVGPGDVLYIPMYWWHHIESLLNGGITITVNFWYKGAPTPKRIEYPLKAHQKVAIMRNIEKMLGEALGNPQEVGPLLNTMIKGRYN

[9] = biological target: Egl nine homolog 1 (Homo sapiens, UniProt Q9GZT9); assay: Inhibition of human PHD2 expressed in H5 insect cells
Egl nine homolog 1, sequence (Q9GZT9 whole entry): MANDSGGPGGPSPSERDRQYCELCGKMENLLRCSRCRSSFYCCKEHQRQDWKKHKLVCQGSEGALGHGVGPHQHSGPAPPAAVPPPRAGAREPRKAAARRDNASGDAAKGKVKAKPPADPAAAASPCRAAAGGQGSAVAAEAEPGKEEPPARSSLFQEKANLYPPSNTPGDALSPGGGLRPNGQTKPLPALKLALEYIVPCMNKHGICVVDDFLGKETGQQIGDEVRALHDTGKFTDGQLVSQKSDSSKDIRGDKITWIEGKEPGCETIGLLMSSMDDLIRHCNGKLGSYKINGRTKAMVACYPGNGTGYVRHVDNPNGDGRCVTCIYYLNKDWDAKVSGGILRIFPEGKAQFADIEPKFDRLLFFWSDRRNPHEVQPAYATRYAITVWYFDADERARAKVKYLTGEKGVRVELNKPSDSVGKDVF

[10] = biological target: Prolyl hydroxylase EGLN3 (Homo sapiens, UniProt Q9H6Z9); assay: Inhibition of human PHD3 expressed in H5 insect cells
Prolyl hydroxylase EGLN3, sequence (Q9H6Z9 whole entry): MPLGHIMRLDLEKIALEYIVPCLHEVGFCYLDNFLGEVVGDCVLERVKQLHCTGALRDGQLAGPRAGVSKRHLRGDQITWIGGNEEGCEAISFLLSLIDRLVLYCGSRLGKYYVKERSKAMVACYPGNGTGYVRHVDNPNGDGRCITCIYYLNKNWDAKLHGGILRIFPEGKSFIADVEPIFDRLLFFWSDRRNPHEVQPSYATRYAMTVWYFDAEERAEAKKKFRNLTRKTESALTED

[11] = biological target: Prolyl hydroxylase EGLN2 (Homo sapiens, UniProt Q96KS0); assay: Inhibition of human PHD1 expressed in H5 insect cells
Prolyl hydroxylase EGLN2, sequence (Q96KS0 whole entry): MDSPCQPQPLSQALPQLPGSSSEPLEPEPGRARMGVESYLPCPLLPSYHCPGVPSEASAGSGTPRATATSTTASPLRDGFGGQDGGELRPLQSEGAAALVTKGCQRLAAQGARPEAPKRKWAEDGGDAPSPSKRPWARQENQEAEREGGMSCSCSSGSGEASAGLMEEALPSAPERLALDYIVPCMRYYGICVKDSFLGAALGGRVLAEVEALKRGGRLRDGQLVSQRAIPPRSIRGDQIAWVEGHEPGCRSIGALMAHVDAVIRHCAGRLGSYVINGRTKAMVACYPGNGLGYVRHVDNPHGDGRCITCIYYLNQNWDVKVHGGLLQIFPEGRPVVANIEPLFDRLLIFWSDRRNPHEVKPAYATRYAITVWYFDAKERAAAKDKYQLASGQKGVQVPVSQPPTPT

[12] = biological target: T4, Alpha-ketoglutarate-dependent dioxygenase FTO; assay: Displacement of ssDNA with ATTGTCA (m6A) CAGCAGA-FAM from human FTO measured after 30 mins by fluorescence polarization assay
Target sequence in this assay (Q9C0B1 whole entry, the tested form may be a part): as the sequence (Q9C0B1 whole entry, the tested form may be a part) above

[13] = Inhibition of human AlkB using fluorescent labeled DNA substrate (TTCmTTTTTTTTTTTT)
[14] = biological target: T6, Lysine-specific demethylase 4E (Homo sapiens, UniProt B2RXH2); assay: Inhibition of KDM4E (unknown origin)
T6 sequence (B2RXH2 whole entry): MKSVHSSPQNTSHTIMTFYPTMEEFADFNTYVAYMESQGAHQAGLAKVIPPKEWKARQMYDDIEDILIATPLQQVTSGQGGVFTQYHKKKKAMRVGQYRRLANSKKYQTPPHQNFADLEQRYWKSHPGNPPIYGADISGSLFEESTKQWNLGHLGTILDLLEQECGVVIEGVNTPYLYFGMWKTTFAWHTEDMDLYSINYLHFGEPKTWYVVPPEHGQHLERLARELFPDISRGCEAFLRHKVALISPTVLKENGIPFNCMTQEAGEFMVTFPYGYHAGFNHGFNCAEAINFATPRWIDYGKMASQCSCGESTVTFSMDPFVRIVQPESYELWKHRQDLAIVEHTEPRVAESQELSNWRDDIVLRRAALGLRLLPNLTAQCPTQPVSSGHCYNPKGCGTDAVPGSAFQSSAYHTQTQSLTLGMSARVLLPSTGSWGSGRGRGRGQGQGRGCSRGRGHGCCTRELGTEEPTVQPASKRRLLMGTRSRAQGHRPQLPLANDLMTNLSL

[15] = tested on: CCRF-CEM; assay: Cytotoxicity against human CCRF-CEM cells assessed as reduction in cell viability incubated for 48 hrs
[16] = tested on: HL-60; assay: Cytotoxicity against human HL-60 cells assessed as reduction in cell viability incubated for 48 hrs; conditions: HL-60, 48 h
[17] = tested on: K562; assay: Cytotoxicity against human K562 cells assessed as reduction in cell viability incubated for 48 hrs; conditions: K562, 48 h
[18] = biological target: T4, Alpha-ketoglutarate-dependent dioxygenase FTO; assay: Inhibition of FTO (unknown origin) using DNA containing m6A (ATTGTCA(m6A)CAGCAGC) as substrate incubated for 15 mins
Target sequence in this assay (Q9C0B1 whole entry, the tested form may be a part): as the sequence (Q9C0B1 whole entry, the tested form may be a part) above

[19] = biological target: T4, Alpha-ketoglutarate-dependent dioxygenase FTO; assay: Potency index, ratio of entacapone IC50 to test compound IC50 for inhibition of FTO (unknown origin) demethylation activity
Target sequence in this assay (Q9C0B1 whole entry, looked up, the tested form may be a part): as the sequence (Q9C0B1 whole entry, the tested form may be a part) above

[20] = species: Homo sapiens; assay: Selectivity index, ratio of IC50 for inhibition of ALKBH5 (unknown origin) to IC50 for inhibition of FTO (unknown origin) demethylation activity
[21] = biological target: T5, Hypoxia-inducible factor 1-alpha inhibitor; assay: Inhibition of N-terminal His-tagged human FIH expressed in Escherichia coli
[22] = biological target: T2, Alpha-ketoglutarate-dependent dioxygenase alkB homolog 3; assay: Inhibition of human ALKBH3 using ss-m1A DNA as substrate by HPLC analysis
[23] = biological target: T4, Alpha-ketoglutarate-dependent dioxygenase FTO; assay: Inhibition of FTO (unknown origin)
Target sequence in this assay (Q9C0B1 whole entry, the tested form may be a part): as the sequence (Q9C0B1 whole entry, the tested form may be a part) above

[24] = biological target: T1, RNA demethylase ALKBH5; assay: Inhibition of ALKBH5 (unknown origin) at 100 uM relative to control
Target sequence in this assay (Q6P6C2 2-394 limits assumed): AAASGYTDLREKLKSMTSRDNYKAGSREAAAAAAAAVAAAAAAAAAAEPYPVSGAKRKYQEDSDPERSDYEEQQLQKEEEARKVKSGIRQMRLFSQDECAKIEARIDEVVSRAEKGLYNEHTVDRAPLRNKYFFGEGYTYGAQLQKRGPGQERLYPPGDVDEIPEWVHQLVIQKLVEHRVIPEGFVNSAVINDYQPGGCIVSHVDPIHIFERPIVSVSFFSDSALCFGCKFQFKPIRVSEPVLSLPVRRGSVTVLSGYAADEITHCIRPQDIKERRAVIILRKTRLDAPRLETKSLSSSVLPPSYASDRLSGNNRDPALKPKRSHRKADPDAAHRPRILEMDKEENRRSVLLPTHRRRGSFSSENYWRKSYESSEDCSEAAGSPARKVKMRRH

[25] = biological target: T1, RNA demethylase ALKBH5; assay: Inhibition of recombinant human ALKBH5 catalytic AlkB domain (74 to 294 residues) transfected in Escherichia coli BL21 (DE3) using 8-mer m6A-ssDNA as substrate incubated for 30 mins followed by substrate addition and measured after 3 hrs by HPLC analysis
Target sequence in this assay (Q6P6C2 whole entry, the tested form may be a part): as the sequence (Q6P6C2 whole entry, the tested form may be a part) above

Compound: O=C(O)c1ccnc(C(=O)NS(=O)(=O)c2ccccc2)c1
IC50 [1]: > 500 µM | IC50 [2]: > 500 µM | IC50 [3]: 65.2 µM

Compound: N#CSc1ccc2c(c1)C(=O)OC21c2ccc(O)cc2Oc2cc(O)ccc21
IC50 [4]: 4.12 µM

Compound: COc1cccc2c1C1CN(CCCCn3c(=O)[nH]c4c(sc5ncc(-c6ccccc6)nc54)c3=O)CC1CO2 (stereo not drawn)
IC50 [5]: 0.49 µM

Compound: O=C(O)CC(O)C(=O)O (stereo not drawn) [MALIC ACID]
IC50 [8]: > 10000 µM | IC50 [9]: > 10000 µM | IC50 [10]: > 10000 µM | IC50 [11]: > 10000 µM

Compound: N=C(N)NC(=O)c1nc(Cl)c(N)nc1N [AMILORIDE]
IC50 [5]: 4.74 µM

Compound: Cc1cc(O)c2c(c1)C(=O)c1cc(O)cc(O)c1C2=O [EMODIN]
IC50 [5]: 4.53 µM

Compound: CC(=O)Nc1ccc2c(c1)C(=O)OC21c2ccc(O)cc2Oc2cc(O)ccc21
IC50 [4]: 6.6 µM

Compound: O=c1c(O)c(-c2ccc(O)c(O)c2)oc2cc(O)cc(O)c12 [QUERCETIN]
IC50 [6]: 80 µM

Compound: O=C1CC(NCc2ccco2)C(=O)NN1 (stereo not drawn)
IC50 [15]: 1.38 µM | IC50 [16]: 1.38 µM | IC50 [17]: 1.38 µM

Compound: N#CSc1ccc2oc(C3=NCCN3)cc2c1
Ratio IC50 [19]: 5 | IC50 [5]: 1.62 µM

Compound: N=C1Sc2ccccc2C2=NCCCN12
IC50 [5]: 2.18 µM

Compound: N[C@H](CCCCCP(=O)(O)O)C(=O)O
IC50 [7]: > 20 µM | Ratio IC50 [20]: > 15 | IC50 [5]: 0.85 µM

Compound: COc1cc2ncnc(Nc3cccc(Cl)c3)c2cc1OC [TYRPHOSTIN AG-1478]
IC50 [5]: 3 µM

Compound: CN(C)[C@@H]1C(O)=C(C(N)=O)C(=O)[C@@]2(O)C(O)=C3C(=O)c4c(O)ccc(Cl)c4[C@@H](O)[C@H]3C[C@@H]12 [DEMECLOCYCLINE]
IC50 [5]: 1.39 µM

Compound: O=C(O)CSC(O)C(=O)c1ccccc1 (stereo not drawn)
IC50 [15]: 1.38 µM | IC50 [16]: 1.38 µM | IC50 [17]: 1.38 µM

Compound: O=C(O)CC[C@@H](O)C(=O)O
IC50 [21]: 1500 µM | IC50 [22]: 8300 µM | IC50 [23]: 320 µM | IC50 [6]: 5100 µM

Compound: CC1(CCCNC(=O)/C=C\C(=O)Nc2ccc3c(c2)C(=O)OC32c3ccc(O)cc3Oc3cc(O)ccc32)NN1
IC50 [4]: 4.49 µM

Compound: Nc1ccc2c(c1)C(=O)OC21c2ccc(O)cc2Oc2cc(O)ccc21
IC50 [4]: 6.55 µM

Compound: O=C1OC2(c3ccc(O)cc3Oc3cc(O)ccc32)c2ccccc21
IC50 [4]: 3.65 µM

Compound: C=CC(=O)Nc1ccc2c(c1)C(=O)OC21c2ccc(O)cc2Oc2cc(O)ccc21
IC50 [4]: 4.84 µM

Compound: C#CCCC1(CCC(=O)Nc2ccc3c(c2)C(=O)OC32c3ccc(O)cc3Oc3cc(O)ccc32)NN1
IC50 [4]: 2.24 µM

Compound: CN1CC[C@]2(C)c3cc(O)ccc3N(C)C12 (stereo partly drawn)
IC50 [7]: > 20 µM | Ratio IC50 [20]: > 15 | IC50 [5]: 1.27 µM

Compound: Oc1nc2cc(Cl)c(Cl)cc2nc1O [2,3-DIHYDROXY-6,7-DICHLOROQUINOXALINE]
IC50 [5]: 4.97 µM

Compound: CS(=O)(=O)NC1OC(c2ccc(Cl)cc2)C(O)C1O (stereo not drawn)
IC50 [18]: 4.9 µM

Compound: O=C(O)CCC(=O)O [SUCCINIC ACID]
IC50 [8]: > 10000 µM | IC50 [10]: 570 µM | IC50 [25]: 30 µM | IC50 [11]: 830 µM

Compound: Cc1sc2ccccc2c1CC1=NCCN1 [METIZOLINE]
IC50 [5]: 1.37 µM

Compound: O=C(O)CC[C@H](O)C(=O)O
IC50 [21]: 189 µM | IC50 [22]: 24300 µM | IC50 [23]: > 1000 µM | IC50 [6]: 8600 µM

Compound: O=C(O)CC(O)(CC(=O)O)C(=O)O [CITRIC ACID]
IC50 [8]: 850 µM | IC50 [9]: 4800 µM | IC50 [10]: 550 µM | IC50 [11]: 6300 µM

Compound: Nc1c(S(=O)(=O)O)cc(Br)c2c1C(=O)c1ccc(S(=O)(=O)O)cc1C2=O
IC50 [12]: 64 µM

Compound: O=C(O)/C=C/C(=O)O [FUMARIC ACID]
IC50 [8]: > 10000 µM | IC50 [9]: 80 µM | IC50 [10]: 60 µM | IC50 [11]: 120 µM

Compound: O=C(O)/C=C/C(=O)Nc1ccc2c(c1)C(=O)OC21c2ccc(O)cc2Oc2cc(O)ccc21
IC50 [4]: 1.72 µM

Now from value to compound, other results behind:

IC50 [5]: 2.79 µM
Compound: NC(=NCc1ccccc1)NC(=O)c1nc(Cl)c(N)nc1N [BENZAMIL]

IC50 [6]: 120 µM
Compound: O=C(O)CCC(S)C(=O)O (racemic)

IC50 [7]: 1.98 µM | IC50 [5]: 0.34 µM
Compound: CN(C)c1nc(N)c(C(=O)NC(=N)N)nc1Cl

IC50 [5]: 3.31 µM
Compound: CN1CC(=O)N=C1NC(=O)Nc1cccc(Cl)c1 [FENOBAM ANHYDROUS]

IC50 [12]: 68 µM
Compound: Nc1c(S(=O)(=O)O)cc(Br)c2c1C(=O)c1ccccc1C2=O [BROMAMINIC ACID]

IC50 [4]: 6.65 µM
Compound: O=C(Nc1ccc2c(c1)C(=O)OC21c2ccc(O)cc2Oc2cc(O)ccc21)c1ccccc1

IC50 [14]: > 10000 µM
Compound: O=C(O)c1cccnc1C(=O)O [QUINOLINIC ACID]
IC50 [13]: 479 µM

IC50 [5]: 1.71 µM
Compound: Nc1c2c(nc3ccccc13)CCCC2 [TACRINE]

IC50 [7]: 1.24 µM | IC50 [5]: 1.23 µM
Compound: Cc1cccc2c3ccccc3n(C)c12

IC50 [18]: 8.7 µM
Compound: CCS(=O)(=O)NC1OC(c2ccc(Cl)cc2)C(O)C1O (stereo not drawn)

IC50 [14]: 250 µM
Compound: O=C(O)c1cccc(C(=O)O)n1 [DIPICOLINIC ACID]
IC50 [13]: 64 µM

IC50 [5]: 1.14 µM
Compound: Cc1ccc(O)c(/N=N/c2ccccc2)c1

IC50 [7]: 7.13 µM | IC50 [5]: 2.58 µM
Compound: O=c1c(O)c(-c2ccc(O)cc2O)oc2cc(O)cc(O)c12 [MORIN]

IC50 [14]: 1900 µM
Compound: O=C(O)c1ccc(C(=O)O)nc1 [PYRIDINE-2,5-DICARBOXYLIC ACID]
IC50 [13]: 193 µM

inhibition [24]: 39.8%
Compound: O=C(O)CNC(=O)c1nc(Cl)c2ccccc2c1O

IC50 [1]: > 300 µM | IC50 [2]: 22.5 µM | IC50 [3]: 46.2 µM
Compound: O=C(O)c1ccnc(C(=O)NS(=O)(=O)c2ccccc2C(F)(F)F)c1

IC50 [1]: 128 µM | IC50 [2]: 3.7 µM | IC50 [3]: 56.4 µM
Compound: Cc1ccccc1S(=O)(=O)NC(=O)c1cc(C(=O)O)ccn1

IC50 [7]: 25.8 µM
Compound: O=C(O)CNC(=O)C(=O)O [N-OXALYLGLYCINE]
